Measurements from patent EP4810065A1, “COMBINED USE OF ANTIBODY-DRUG CONJUGATE AND POLY(ADENOSINE D[…]) POLYMERASE INHIBITOR” (Jiangsu Hansoh Pharmaceutical Group Co., Ltd., priority 2023, dated 2025).

Assays:
[1] = test system: CAL-51 cells; experiment: CTG growth inhibition, drug A/drug B cross-combination, 6 days; assay type: cell-based, human; conditions: Drug B alone, 4.12-1000.00 nM
Method: (§1) Tumor cells in good growth condition were seeded into 96-well plates. After overnight growth onto the wall, different concentrations of the test substances were administered, with different concentrations of the two test substances arranged in a cross-combination design.
(§2) The starting concentration of test drug A was 1000 nM, which was subjected to 1:3 serial dilution to generate a total of 6 concentration levels; the starting concentration of test drug B was set at 1000 nM, which was subjected to 1:3 serial dilution to generate a total of 6 concentration levels. After the combined test substances had acted on each cell line for 6 days, the CTG method was used to detect the in vitro proliferation inhibitory effect of the combined use of the test drugs on tumor cells. Table 2-1 Drug A and drug B treatment dosing scheme
(§3) Based on the signal values measured by the microplate reader, the cell growth inhibition rate was calculated according to the following formula: Growth inhibition rate % (growth inhibition%) = [1-(measured value-minimum value mean-background value)/(maximum value mean-background value-minimum value mean)] ×100% (measured value: reading value of compound wells; minimum value: reading value of ZPE wells (reading value of wells containing cell culture medium without cells); maximum value: reading value of HPE wells (cell reading value of the DMSO treatment group); background value: cell background measured value before addition of the compound).

[2] = test system: EN cells; experiment: as above; assay type: cell-based, human; conditions: Drug B alone, 4.12-1000.00 nM
Method: as §1, §2, §3

[3] = test system: HEC-1A cells; experiment: as above; assay type: cell-based, human; conditions: Drug B alone, 4.12-1000.00 nM
Method: as §1, §2, §3

[4] = test system: MX-1 cells; experiment: as above; assay type: cell-based, human; conditions: Drug B alone, 4.12-1000.00 nM
Method: as §1, §2, §3

[5] = test system: OAW42 cells; experiment: as above; assay type: cell-based, human; conditions: Drug B alone, 4.12-1000.00 nM
Method: as §1, §2, §3

[6] = test system: SK-OV-3 cells; experiment: as above; assay type: cell-based, human; conditions: Drug B alone, 4.12-1000.00 nM
Method: as §1, §2, §3

[7] = test system: human ovarian cancer OV0243; experiment: OV0243 human ovarian cancer PDX subcutaneous xenograft model; assay type: in vivo, BALB/c nude mice; conditions: for TGI (%): D27, tumor regression formula
Method: • Drug A was prepared by dilution with normal saline, and drug B was prepared using 0.5% HPMC; • OV0243 (mild cachexia), human ovarian cancer tumor tissue, was provided by Crown Bioscience (Beijing) Inc. • BALB/c nude mice, female, body weight 16-22 g, were purchased from Jiangsu Jicui Yaokang Biotechnology Co., Ltd.
OV0243 human ovarian cancer tissue was uniformly cut into tumor pieces with a diameter of 2-3 mm and inoculated subcutaneously at the right front scapular region of BALB/c nude mice, and tumor growth was regularly observed. When the average tumor volume reached 100-150 mm^3, random grouping was performed based on the tumor size and mouse body weight in accordance with Table 4-1. The tumor diameter was measured twice a week with a vernier caliper, and the calculation formula for tumor volume (V) was:V = 1/2×a×b^2 where a, b respectively indicate length and width.
The experimental indicator was to examine the effect of the drug on tumor growth, and the specific indicator was the tumor growth inhibition rate TGI (%).
Calculation of TGI (%): When there was no tumor regression, TGI (%) = [1 - (average tumor volume of a certain treatment group at the end of administration - average tumor volume of that treatment group at grouping)/(average tumor volume of the vehicle control group at the end of treatment - average tumor volume of the vehicle control group at grouping)] × 100%. When there was tumor regression, TGI (%) = [1 - (average tumor volume of a certain treatment group at the end of administration - average tumor volume of that treatment group at grouping)/average tumor volume of that treatment group at grouping] × 100%.
At the end of the experiment, upon reaching the experimental endpoint, or when the average tumor volume reached 2000 mm^3, the animals were euthanized under CO2 anesthesia, and then dissected for tumor collection and photographing.
The experimental data were analyzed and plotted using GraphPad Prism 9.4. Based on the tumor volume data of each group at different time points, Dunnett's multiple comparisons test in Two-way ANOVA was used for statistical analysis to evaluate differences among groups.
The invivoSyn method was used to analyze the synergistic effect of the combination treatment. First, based on the exponential growth model, the tumor growth rate of each mouse (eGR, exponential growth rate) and the average tumor growth rate of each group (eGRg) were calculated. Then, the relative survival rate of the treatment group and the control group was calculated by using the conditional probability formula Pr(T|C)=ST/SC, wherein SA, SB, and SAB are respectively defined as the relative survival rates of single-drug group A, single-drug group B, and the combination administration group at time point t. SA = (exp(eGRA*t))/(exp(eGRC*t)) [formula] SB = (exp(eGRB*t))/(exp(eGRC*t)) [formula] SAB = (exp(eGRAB*t))/(exp(eGRC*t)) [formula]
Based on the highest single-drug effect model (HSA, Highest Single Agent), the expected survival rate E(SAB) of the combination administration group was calculated. For the HSA model, E(SAB) = min(SA, SB). CI (Combination Index) is defined as the ratio of the observed survival rate SAB of the combination administration group to E(SAB), while the synergistic effect score (SS, Synergy Score) is defined as the percentage difference between E(SAB) and SAB. When the CI value is less than 1 or the SS value is greater than 0, the combination is considered to have a synergistic effect. p values and confidence intervals were calculated using the stratified bootstrap method (Stratified bootstrap). Table 4-1. Dosing regimen of drug A in combination with drug B in the OV0243 model

CCc1cc2ncc(CN3CC=C(c4ccc(C(=O)NC)nc4)CC3)cc2[nH]c1=O [Drug B, 1'-((7-ethyl-6-oxo-5,6-dihydro-1,5-naphthyridin-3-yl)methyl)-N-methyl-1',2',3',6'-tetrahydro-[3,4'-bipyridine]-6-carboxamide] was tested, and the Growth inhibition rate ([1]; drug B 4.12 nM) was 9.89%, the Growth inhibition rate ([1]; drug B 12.35 nM) was 8.42% and the Growth inhibition rate ([1]; drug B 37.04 nM) was 12.34%. It also gave a Growth inhibition rate ([1]; drug B 111.11 nM) of 11.19%, a Growth inhibition rate ([1]; drug B 333.33 nM) of 15.02% and a Growth inhibition rate ([2]; drug B 4.12 nM) of 31.13%. For the same molecule, the Growth inhibition rate ([2]; drug B 12.35 nM) was 22.59%, the Growth inhibition rate ([2]; drug B 37.04 nM) was 24.15% and the Growth inhibition rate ([2]; drug B 111.11 nM) was 27.18%. For the same molecule, the Growth inhibition rate ([2]; drug B 333.33 nM) was 24.54%, the Growth inhibition rate ([3]; drug B 4.12 nM) was 3.73% and the Growth inhibition rate ([3]; drug B 12.35 nM) was 4.25%. It also gave a Growth inhibition rate ([3]; drug B 37.04 nM) of 5.84%, a Growth inhibition rate ([3]; drug B 111.11 nM) of 9.01% and a Growth inhibition rate ([3]; drug B 333.33 nM) of 7.40%. The Growth inhibition rate ([4]; drug B 4.12 nM) was 33.15%, the Growth inhibition rate ([4]; drug B 12.35 nM) was 31.24% and the Growth inhibition rate ([4]; drug B 37.04 nM) was 33.85%. It also gave a Growth inhibition rate ([4]; drug B 111.11 nM) of 40.59%, a Growth inhibition rate ([4]; drug B 333.33 nM) of 46.92% and a Growth inhibition rate ([5]; drug B 4.12 nM) of 6.29%. The Growth inhibition rate ([5]; drug B 12.35 nM) was 4.07%, the Growth inhibition rate ([5]; drug B 37.04 nM) was 6.30% and the Growth inhibition rate ([5]; drug B 111.11 nM) was 7.53%. For the same molecule, the Growth inhibition rate ([5]; drug B 333.33 nM) was 12.46%, the Growth inhibition rate ([6]; drug B 4.12 nM) was 3.96% and the Growth inhibition rate ([6]; drug B 12.35 nM) was 2.49%. The Growth inhibition rate ([6]; drug B 37.04 nM) was 2.34%, the Growth inhibition rate ([6]; drug B 111.11 nM) was 6.14% and the Growth inhibition rate ([6]; drug B 333.33 nM) was 9.22%. The “Average tumor volume (mm^3) ± SEM” value ([7]; D0 (at grouping), Drug B 0.1 mg/kg p.o. QD*28 times) was 137±2 mm^3, the “Average tumor volume (mm^3) ± SEM” value ([7]; D0 (at grouping), Drug B 1 mg/kg p.o. QD*28 times) was 138±2 mm^3 and the “TGI (%)” value ([7]; Drug B 0.1 mg/kg p.o. QD*28 times) was 129.84%. The “TGI (%)” value ([7]; Drug B 1 mg/kg p.o. QD*28 times) was 191.94%, the “Average tumor volume (mm^3) ± SEM” value ([7]; Day 27, Drug B 0.1 mg/kg p.o. QD*28 times) was 96±14 mm^3 and the “Average tumor volume (mm^3) ± SEM” value ([7]; Day 27, Drug B 1 mg/kg p.o. QD*28 times) was 11±6 mm^3. For the same molecule, the “Average tumor volume (mm^3) ± SEM” value ([7]; Day 55, Drug B 0.1 mg/kg p.o. QD*28 times) was 3±3 mm^3, the “Average tumor volume (mm^3) ± SEM” value ([7]; Day 55, Drug B 1 mg/kg p.o. QD*28 times) was 0±0 mm^3 and the “Average tumor volume (mm^3) ± SEM” value ([7]; Day 83 (day 56 after drug withdrawal), Drug B 0.1 mg/kg p.o. QD*28 times) was 78±27 mm^3. The “Average tumor volume (mm^3) ± SEM” value ([7]; Day 83 (day 56 after drug withdrawal), Drug B 1 mg/kg p.o. QD*28 times) was 50±23 mm^3, the “tumor growth inhibition, monotherapy” value ([7]; OV0243 model, conclusion) was “significantly inhibit the growth of xenograft tumors in nude mice” and the tolerability ([7]; OV0243 tumor-bearing mice) was “could well tolerate”. For the same molecule, the “body weight decrease of 1 animal” value ([7]; drug B 0.1 mg/kg, by day 51, euthanasia) was “greater than 20%”, the “body weight decrease of 1 animal” value ([7]; drug B 0.1 mg/kg, day 23) was 17.39% and the “animals with partial tumor regression” value ([7]; drug B 0.1 mg/kg, day 27) was 5/6. The “average body weight change rate” value ([7]; drug B 0.1 mg/kg, day 27) was 2.18%, the “animals with complete tumor regression” value ([7]; drug B 1 mg/kg, day 27) was 3/6 and the “animals with partial tumor regression” value ([7]; drug B 1 mg/kg, day 27) was 3/6. The “average body weight change rate” value ([7]; drug B 1 mg/kg, day 27) was 3.75%.
